# From patent publication US11414416B1, “Compounds and uses thereof” (Foghorn Therapeutics Inc., priority 2019, dated 2022)
# Molecular target: Nanoluciferase-BRD9 fusion protein (Homo sapiens (Human), UniProt Q9H8M2)
# Test: SYO1 BRD9 NanoLuc degradation assay
# Format: cell-based
# Conditions: Table 5A; SYO-1 cells expressing 3×FLAG-NLuc-BRD9, 6 hours
# Procedure: Procedure: A stable SYO-1 cell line expressing 3×FLAG-NLuc-BRD9 was generated. On day 0 cells were seeded in 30 μL media into each well of 384-well cell culture plates. The seeding density was 8000 cells/well. […] Subsequently plates were incubated for 6 hours in a standard tissue culture incubator and equilibrated at room temperature for 15 minutes. Nanoluciferase activity was measured by adding 15 μL of freshly prepared Nano-Glo Luciferase Assay Reagent (Promega N1130), shaking the plates for 10 minutes and reading the bioluminescence using an EnVision reader.
# DMSO treated cells are employed as High Control (HC) and 1 μM of a known BRD9 degrader standard treated cells are employed as Low Control (LC).
# Nanoluciferase-BRD9 fusion protein, sequence (Q9H8M2 whole entry, the tested form may be a part): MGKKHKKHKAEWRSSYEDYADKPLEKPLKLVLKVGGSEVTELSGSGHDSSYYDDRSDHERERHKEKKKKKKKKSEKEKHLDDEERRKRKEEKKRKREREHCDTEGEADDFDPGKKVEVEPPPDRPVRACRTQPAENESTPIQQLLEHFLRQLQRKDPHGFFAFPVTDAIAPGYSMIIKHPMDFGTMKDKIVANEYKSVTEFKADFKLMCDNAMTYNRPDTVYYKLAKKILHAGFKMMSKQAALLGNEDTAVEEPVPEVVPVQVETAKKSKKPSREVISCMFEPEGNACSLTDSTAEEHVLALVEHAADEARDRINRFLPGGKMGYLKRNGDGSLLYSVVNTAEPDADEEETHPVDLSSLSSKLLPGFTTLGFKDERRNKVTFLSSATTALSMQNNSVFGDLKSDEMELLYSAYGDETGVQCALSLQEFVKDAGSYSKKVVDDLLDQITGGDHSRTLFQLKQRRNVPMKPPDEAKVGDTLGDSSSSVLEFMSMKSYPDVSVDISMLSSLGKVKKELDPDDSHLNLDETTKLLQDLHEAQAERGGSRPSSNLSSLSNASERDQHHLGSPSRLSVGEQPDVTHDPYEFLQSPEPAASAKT
row,IC50 [nM],Compound
1,10 to 100,COc1cc(-c2cn(C)c(=O)c3cnccc23)cc(OC)c1CN1CC2(CCN(C(=O)CCOCCOc3cccc4c3C(=O)N(C3CCC(=O)NC3=O)C4=O)C2)C1 (centres unmarked) [Compound D90]

# Same assay, conditions: Table 5A; SYO-1 cells expressing 3×FLAG-NLuc-BRD9, 6 hours; read-out: SYO1 BRD9-NanoLuc degradation IC50
row,DC50 [nM],Compound
1,100 to 1000,COc1cc(-c2cn(C)c(=O)c3cnccc23)cc(OC)c1CN1CC(CC(=O)N2CC3(CCN(c4ccc5c(c4)C(=O)N(C4CCC(=O)NC4=O)C5=O)C3)C2)C1 (centres unmarked) [Compound D77]
2,10 to 100,COc1cc(-c2cn(C)c(=O)c3cnccc23)cc(OC)c1CN1CC(CC(=O)NC2CC3(C2)CC(Oc2ccc4c(c2)C(=O)N(C2CCC(=O)NC2=O)C4=O)C3)C1 (centres unmarked) [Compound D78]
3,100 to 1000,COc1cc(-c2cn(C)c(=O)c3cnccc23)cc(OC)c1CN1CC(CC(=O)N2CC3(CCC(Oc4ccc5c(c4)C(=O)N(C4CCC(=O)NC4=O)C5=O)C3)C2)C1 (centres unmarked) [Compound D79]
4,< 10,COc1cc(-c2cn(C)c(=O)c3cnccc23)cc(OC)c1CN1CC(CC(=O)N2CCC3(CC2)CC(Oc2ccc4c(c2)C(=O)N(C2CCC(=O)NC2=O)C4=O)C3)C1 (centres unmarked) [Compound D80]
5,< 10,COc1cc(-c2cn(C)c(=O)c3cnccc23)cc(OC)c1CN1CC2(C1)CN(C(=O)C#Cc1ccc3c(c1)C(=O)N(C1CCC(=O)NC1=O)C3=O)C2 (centres unmarked) [Compound D81]
6,10 to 100,COc1cc(-c2cn(C)c(=O)c3cnccc23)cc(OC)c1CN1CCC2(CC1)CC(NC(=O)CCOCCOc1cccc3c1C(=O)N(C1CCC(=O)NC1=O)C3=O)C2 (centres unmarked) [Compound D82]
7,100 to 1000,COc1cc(-c2cn(C)c(=O)c3cnccc23)cc(OC)c1CN1CC(CCNC(=O)CCOCCOc2cccc3c2C(=O)N(C2CCC(=O)NC2=O)C3=O)C1 (centres unmarked) [Compound D83]

# Same assay, conditions: Table 5B; SYO-1 cells expressing 3×FLAG-NLuc-BRD9, 6 hours; read-out: SYO1 BRD9-NanoLuc degradation IC50
row,Compound,DC50 [nM]
1,COc1cc(-c2cn(C)c(=O)c3cnccc23)cc(OC)c1CN(C)C1CCN(CCOc2ccc3c(c2)C(=O)N(C2CCC(=O)NC2=O)C3=O)CC1 (centres unmarked) [Compound D178],< 10
2,COc1cc(-c2cn(C)c(=O)c3cnccc23)cc(OC)c1CN1CC(S(=O)(=O)NCCN2CCN(c3ccc4c(c3)C(=O)N(C3CCC(=O)NC3=O)C4=O)CC2)C1 (centres unmarked) [Compound D179],10 to 100
3,COc1cc(-c2cn(C)c(=O)c3cnccc23)cc(OC)c1CN1CC(CC(=O)N2CC3(CCN(c4ccc5c(c4)C(=O)N(C4CCC(=O)NC4=O)C5=O)C3)C2)C1 (centres unmarked) [Compound D181],100 to 1000
4,COc1cc(-c2cn(C)c(=O)c3cnccc23)cc(OC)c1CN1CC(CC(=O)NC2CC3(C2)CC(Oc2ccc4c(c2)C(=O)N(C2CCC(=O)NC2=O)C4=O)C3)C1 (centres unmarked) [Compound D182],10 to 100
5,COc1cc(-c2cn(C)c(=O)c3cnccc23)cc(OC)c1CN1CC(CC(=O)N2CC3(CCC(Oc4ccc5c(c4)C(=O)N(C4CCC(=O)NC4=O)C5=O)C3)C2)C1 (centres unmarked) [Compound D183],100 to 1000
6,COc1cc(-c2cn(C)c(=O)c3cnccc23)cc(OC)c1CN1CC(CC(=O)N2CC3(CCN(c4ccc5c(c4)C(=O)N(C4CCC(=O)NC4=O)C5=O)CC3)C2)C1 (centres unmarked) [Compound D190],10 to 100
7,COc1cc(-c2cn(C)c(=O)c3cnccc23)cc(OC)c1CN1CC(CC(=O)N2CCC3(CCN(c4ccc5c(c4)C(=O)N(C4CCC(=O)NC4=O)C5=O)C3)C2)C1 (centres unmarked) [Compound D192],100 to 1000
8,COc1cc(-c2cn(C)c(=O)c3cnccc23)cc(OC)c1CN1CC(CC(=O)N2CCC3(C2)CN(c2ccc4c(c2)C(=O)N(C2CCC(=O)NC2=O)C4=O)C3)C1 (centres unmarked) [Compound D193],100 to 1000
9,COc1cc(-c2cn(C)c(=O)c3cnccc23)cc(OC)c1CN1CC(CC(=O)N2CC3(C2)CN(c2ccc4c(c2)C(=O)N(C2CCC(=O)NC2=O)C4=O)C3)C1 (centres unmarked) [Compound D195],10 to 100
10,COc1cc(-c2cn(C)c(=O)c3cnccc23)cc(OC)c1CN1CCC2(CC1)CN(CCCC#Cc1ccc3c(c1)C(=O)N(C1CCC(=O)NC1=O)C3=O)C2 (centres unmarked) [Compound D196],10 to 100
11,COc1cc(-c2cn(C)c(=O)c3cnccc23)cc(OC)c1CN1CC2(C1)CN(C(=O)CCC#Cc1ccc3c(c1)C(=O)N(C1CCC(=O)NC1=O)C3=O)C2 (centres unmarked) [Compound D200],10 to 100
12,COc1cc(-c2cn(C)c(=O)c3cnccc23)cc(OC)c1CN1CC(CC(=O)NC2CCC23CN(c2ccc4c(c2)C(=O)N(C2CCC(=O)NC2=O)C4=O)C3)C1 (centres unmarked) [Compound D209],100 to 1000
13,COc1cc(-c2cn(C)c(=O)c3cnccc23)cc(OC)c1CN1CC(CC(=O)N2CCC3C2CN3c2ccc3c(c2)C(=O)N(C2CCC(=O)NC2=O)C3=O)C1 (centres unmarked) [Compound D210],10 to 100
14,COc1cc(-c2cn(C)c(=O)c3cnccc23)cc(OC)c1CN1CC2(CCN(CCCC#Cc3ccc4c(c3)C(=O)N(C3CCC(=O)NC3=O)C4=O)C2)C1 (centres unmarked) [Compound D211],< 10
15,COc1cc(-c2cn(C)c(=O)c3cnccc23)cc(OC)c1CN1CC2(CCN(CCCC#Cc3ccc4c(c3)C(=O)N(C3CCC(=O)NC3=O)C4=O)CC2)C1 (centres unmarked) [Compound D212],10 to 100
16,COc1cc(-c2cn(C)c(=O)c3cnccc23)cc(OC)c1CN1CCC2(CC1)CCN(CCCC#Cc1ccc3c(c1)C(=O)N(C1CCC(=O)NC1=O)C3=O)C2 (centres unmarked) [Compound D213],< 10
17,COc1cc(-c2cn(C)c(=O)c3cnccc23)cc(OC)c1CN1CCN(CCCC#Cc2ccc3c(c2)C(=O)N(C2CCC(=O)NC2=O)C3=O)CC1 (centres unmarked) [Compound D214],< 10
18,COc1cc(-c2cn(C)c(=O)c3cnccc23)cc(OC)c1CN1CC2(CN(CCCC#Cc3ccc4c(c3)C(=O)N(C3CCC(=O)NC3=O)C4=O)C2)C1 (centres unmarked) [Compound D215],< 10
19,COc1cc(-c2cn(C)c(=O)c3cnccc23)cc(OC)c1CN1CCN(C(=O)C#Cc2ccc3c(c2)C(=O)N(C2CCC(=O)NC2=O)C3=O)CC1 (centres unmarked) [Compound D216],< 10

# The next lines start with the values.
row,DC50 [nM],Compound
1,< 10,COc1cc(-c2cn(C)c(=O)c3cnccc23)cc(OC)c1CN1CC(CC(=O)N2CCC3(CC2)CN(c2ccc4c(c2)C(=O)N(C2CCC(=O)NC2=O)C4=O)C3)C1 (centres unmarked) [Compound D180]
2,< 10,COc1cc(-c2cn(C)c(=O)c3cnccc23)cc(OC)c1CN1CC(CC(=O)N2CCC3(CC2)CC(Oc2ccc4c(c2)C(=O)N(C2CCC(=O)NC2=O)C4=O)C3)C1 (centres unmarked) [Compound D184]
3,< 10,COc1cc(-c2cn(C)c(=O)c3cnccc23)cc(OC)c1CN1CC2(C1)CN(C(=O)C#Cc1ccc3c(c1)C(=O)N(C1CCC(=O)NC1=O)C3=O)C2 (centres unmarked) [Compound D185]
4,< 10,COc1cc(-c2cn(C)c(=O)c3cnccc23)cc(OC)c1CN(C)C(=O)CCCCN1CCC2(CC1)CN(c1ccc3c(c1)C(=O)N(C1CCC(=O)NC1=O)C3=O)C2 (centres unmarked) [Compound D186]
5,< 10,COc1cc(-c2cn(C)c(=O)c3cnccc23)cc(OC)c1CN(C)C(=O)CCCCN1CC2(CCN(c3ccc4c(c3)C(=O)N(C3CCC(=O)NC3=O)C4=O)C2)C1 (centres unmarked) [Compound D187]
6,< 10,COc1cc(-c2cn(C)c(=O)c3cnccc23)cc(OC)c1CN(C)C(=O)CCCCN1CCC2(CCN(c3ccc4c(c3)C(=O)N(C3CCC(=O)NC3=O)C4=O)C2)C1 (centres unmarked) [Compound D188]
7,< 10,COc1cc(-c2cn(C)c(=O)c3cnccc23)cc(OC)c1CN1CC(CC(=O)NC2CC3(CCN(c4ccc5c(c4)C(=O)N(C4CCC(=O)NC4=O)C5=O)CC3)C2)C1 (centres unmarked) [Compound D189]
8,< 10,COc1cc(-c2cn(C)c(=O)c3cnccc23)cc(OC)c1CN1CC(CC(=O)N2CCC3(CC2)CCN(c2ccc4c(c2)C(=O)N(C2CCC(=O)NC2=O)C4=O)C3)C1 (centres unmarked) [Compound D191]
9,< 10,COc1cc(-c2cn(C)c(=O)c3cnccc23)cc(OC)c1CN1CC(CC(=O)NC2CC3(C2)CN(c2ccc4c(c2)C(=O)N(C2CCC(=O)NC2=O)C4=O)C3)C1 (centres unmarked) [Compound D194]
10,< 10,COc1cc(-c2cn(C)c(=O)c3cnccc23)cc(OC)c1CN1CCC2(CC1)CN(C(=O)C#Cc1ccc3c(c1)C(=O)N(C1CCC(=O)NC1=O)C3=O)C2 (centres unmarked) [Compound D197]
11,< 10,COc1cc(-c2cn(C)c(=O)c3cnccc23)cc(OC)c1CN1CC2(CCN(C(=O)C#Cc3ccc4c(c3)C(=O)N(C3CCC(=O)NC3=O)C4=O)CC2)C1 (centres unmarked) [Compound D198]
12,< 10,COc1cc(-c2cn(C)c(=O)c3cnccc23)cc(OC)c1CN1CCN(C(=O)CCC#Cc2ccc3c(c2)C(=O)N(C2CCC(=O)NC2=O)C3=O)CC1 (centres unmarked) [Compound D199]
13,< 10,COc1cc(-c2cn(C)c(=O)c3cnccc23)cc(OC)c1CN(C)C(=O)CCCCN1CC2(CCN(c3ccc4c(c3)C(=O)N(C3CCC(=O)NC3=O)C4=O)CC2)C1 (centres unmarked) [Compound D201]
14,< 10,COc1cc(-c2cn(C)c(=O)c3cnccc23)cc(OC)c1CN(C)C(=O)CCCCN1CCC2(CC1)CCN(c1ccc3c(c1)C(=O)N(C1CCC(=O)NC1=O)C3=O)C2 (centres unmarked) [Compound D202]
15,< 10,COc1cc(-c2cn(C)c(=O)c3cnccc23)cc(OC)c1CN(C)C(=O)CCCCN1CCC2(C1)CN(c1ccc3c(c1)C(=O)N(C1CCC(=O)NC1=O)C3=O)C2 (centres unmarked) [Compound D203]
16,< 10,COc1cc(-c2cn(C)c(=O)c3cnccc23)cc(OC)c1CN(C)C(=O)CCCCNC1CC2(C1)CN(c1ccc3c(c1)C(=O)N(C1CCC(=O)NC1=O)C3=O)C2 (centres unmarked) [Compound D204]
17,< 10,COc1cc(-c2cn(C)c(=O)c3cnccc23)cc(OC)c1CN(C)C(=O)CCCCN1CCC2C1CN2c1ccc2c(c1)C(=O)N(C1CCC(=O)NC1=O)C2=O (centres unmarked) [Compound D205]
18,< 10,COc1cc(-c2cn(C)c(=O)c3cnccc23)cc(OC)c1CN(C)C(=O)CCCCN1CC2(C1)CN(c1ccc3c(c1)C(=O)N(C1CCC(=O)NC1=O)C3=O)C2 (centres unmarked) [Compound D206]
19,< 10,COc1cc(-c2cn(C)c(=O)c3cnccc23)cc(OC)c1CN(C)C(=O)CCCCN1CC2(CCC(Oc3ccc4c(c3)C(=O)N(C3CCC(=O)NC3=O)C4=O)C2)C1 (centres unmarked) [Compound D207]
20,< 10,COc1cc(-c2cn(C)c(=O)c3cnccc23)cc(OC)c1CN(C)C(=O)CCCCN1CCC2(CC1)CC(Oc1ccc3c(c1)C(=O)N(C1CCC(=O)NC1=O)C3=O)C2 (centres unmarked) [Compound D208]
